Data as given in patent US20200113902A1, “COMPOSITIONS AND METHODS FOR TREATING CANCERS WITH COVALENT INHIBITORS OF CYCLIN-DEPENDENT KINASE 7 (CDK7)” (Syros Pharmaceuticals, Inc., priority 2017, published 2020).

Experiments:
[1] = test system: OV15696 xenograft; assay: Ovarian PDX OV15696, tumor volume; format: in vivo, mouse; details: 40 or 30 mg/kg i.v. BIW
Description: Patient-derived xenograft (PDX) models from ovarian carcinoma patients (OV5387, OV14702, OV14972, OV15398, OV15576, OV15696, OV15612, OV15631) were established in NOD-SCID mice at Crown Bioscience (San Diego, USA). Cryo vials containing tumor cells were thawed and prepared for injection into mice. Cells were washed in PBS, counted, and resuspended in cold PBS at a concentration of 50,000-100,000 viable cells/100 ul. Cell suspensions were mixed with an equal volume of Cultrex ECM and kept on ice during transport to the vivarium. Cells were prepared for injections by withdrawing ECM-Cell mixture into a chilled slip-tip syringe fitted with a 26G 7/8 (0.5 mm×22 mm) needle. The filled syringes were kept on ice to avoid the solidification of ECM. Each mouse was inoculated subcutaneously in the right flank with 200 uL of the cell suspension. Tumor sizes were measured in two dimensions using a caliper, and the volumes were expressed in mm3 using the formula: V=0.5 a×b^2 where a and b are the longest and shortest diameters of the tumor, respectively. Compound 1 treatment was started when the average tumor size reached 150-200 mm^3.
Compound 1 was formulated in w/v 20% Captisol (pH 4-6) and administered by i.v. twice weekly (BIW) at a final dose of 40 mg/kg or 30 mg/kg in a 10 ml/kg volume. Tumor volumes were measured twice weekly over the course of the study. […]

[2] = test system: MCL1 protein in OC1M1 cells; assay: Western blot, AML cell line OC1M1; format: cell-based; details: OC1M1 (high BCL-XL); 50 nM
Description: Cytotoxic cancer cell lines HCC70 and TOV21G, and cytostatic cancer cell lines T47D and COV318 were seeded in wells of a six-well dish at a density of 1×10^6 cells/well and allowed to adhere overnight. Cells were then treated with 50 nM of Compound 1 for 16 or 24 hours, or with DMSO (0 hours) representing a negative control. Cells were harvested and placed on ice, and resuspended in RIPA lysis buffer supplemented with protease and phosphatase inhibitors. Clarified lysates prepared with 4×LSD running buffer and boiled at 95° C. for 5 minutes. Equivalent amounts of sample (10 μg total protein) were run on a 4-12% Bis-Tris gel and transferred to a PDVF membrane for Western blotting using standard Western blotting protocols. Membranes were blocked with Licor TBS blocking buffer then probed with antibodies for BCL-XL, BCL-2, MCL1, BID, and GAPDH visualized using and Odyssey imager (FIGS. 23A and 23D).
We next explored the expression of MCL1, BCL-XL and BCL2 in four different AML cell lines. MV411, OCI-AML3 and KG1 cells were separately grown and prepared as described in Example 2 for Western blotting, using antibodies specific for BCL2 (FIG. 24A), BCL-XL, MCL-1 and tubulin as an internal control (FIG. 24B).

[3] = test system: homologous recombination deficiency / carboplatin sensitivity genes in A2780 cells; assay: Nanostring PanCancer Pathways mRNA, A2780; format: cell-based; details: 50 nM, 16 hours
Description: Ovarian Cell lines OvCar3, TOV21G, A2780 and COV318 were plated at 500,000 cells/well in a 6-well plate the day before treatment. The next day the cells were treated with vehicle or 50 nM Compound 1 for 0, 6, or 16 hours after which cells were harvested and total RNA collected using RNeasy mini kit (Qiagen). Changes in mRNA between samples were analyzed with Nanostring™ PanCancer Pathways Panels specifically analyzing genes related to homologous recombination deficiency and carboplatin sensitivity (ie. BRCA1, BRCA2, Rad51, ATM, ATR, MSH2, MSH6). Nanostring signal intensities were first normalized to housekeeping genes across all cell lines, and then normalized to the 0 hour timepoint within a cell line.

[4] = test system: gene expression in HCC70 cells; assay: Gene expression profiling via RNA-seq (DESeq2, linear model), HCC70; format: cell-based; details: four hours, JQ1 125 nM, Compound 1 25 nM
Description: In addition, we compared the ability of JQ1 alone, Compound 1 alone, and a combination of JQ1 and Compound 1 to modify expression of various genes in two breast cancer cell lines. Two triple-negative breast cancer cell lines (HCC70 and MDA-MB468) were tested. The cell lines were treated with JQ1, Compound 1, the JQ1/Compound 1 combination, or DMSO for four hours, after which gene expression profiling via RNA-seq was performed. JQ1 was administered to the cells at a 125 nM final concentration in both single agent and combination experiments. Compound 1 was administered to the cells at a 25 nM final concentration in both single agent and combination experiments. Each experiment was performed in triplicate. One replicate of MDA-MB-468 treated with single-agent JQ1 was excluded from further analysis due to quality.
We employed DESeq2 (Love et al., Genome Biology, 15(12):550, 2014) to identify changes in gene expression due to the JQ1, Compound 1, and JQ1-Compound 1 combination treatment compared to the control DMSO condition based on the RNA-seq data. Genes resulting in a p-value below 0.01 and an absolute logFoldChange above 0.5 were considered to be differentially expressed. […] The same is true for 1459 of 2414 genes in MDA-MB468.
To identify the genes whose expression is impacted synergistically by the drug combination, we modeled the effect of each drug treatment on expression using a linear model. The expression of each gene after the combination treatment can be thought of as the combined impact of Compound 1, JQ1, and any synergistic interaction between the drug treatments on baseline gene expression. A linear model used to describe this relationship could therefore be represented as:
Gene Expression after combination treatment=Baseline Expression+Compound 1 effect+JQ1 effect+Combination effect (Synergistic Impact)
By fitting the expression data for each gene using this model, we were able to evaluate the effect of each treatment, and identify cases where a synergistic interaction between Compound 1 and JQ1 impacts final gene expression. After fitting the linear model to each gene, the weight and p-value of each term can be evaluated. The combination term's weight signifies the mean change resulting from a synergetic impact on expression, with a negative weight indicating synergistic downregulation. Its associated p-value represents the probability that the combination term is not relevant to final gene expression. Using this approach, we identified 1806 genes in HCC70 and 2205 genes in MDA-MB468 whose expression change in the combination treatment was synergistic and whose associated p-value was less than a threshold cutoff of 0.01. The expression of these synergistic genes could not be explained by an additive effect of Compound 1 and JQ1 alone.

SMILES: CN(C)C/C=C/C(=O)Nc1ccc(C(=O)N[C@@]2(C)CCC[C@@H](Nc3ncc(Cl)c(-c4c[nH]c5ccccc45)n3)C2)nc1 [Compound 1, N-((1S,3R)-3-(5-chloro-4-(1H-indol-3-yl)pyrimidin-2-ylamino)-1-methylcyclohexyl)-5-((E)-4-(dimethylamino)but-2-enamido)picolinamide]
- Response to treatment (tumor growth) [1]: non-responders
- MCL1 protein level (Western blot) [2]: little effect
- mRNA of genes related to homologous recombination deficiency and carboplatin sensitivity, all genes except Rad51 (BRCA1, BRCA2, ATM, ATR, MSH2, MSH6) [3]: downregulated
- Average Expression (TPM) GATA3 ([4]; DMSO 32.685): 22.404 TPM
- Average Expression (TPM) FOXC1 ([4]; DMSO 40.481): 25.768 TPM
- Average Expression (TPM) TGIF1 ([4]; DMSO 62.523): 68.293 TPM
